Reference: US20080182895A1 (priority 2006, published 2008)
≈ marks a conversion by molar mass, not a printed value. Where “and” joins values, the source holds several entries; their conditions need not be identical. Equal entries are not always repeated. Where two headings read alike, the source gives them in different places.

Columns and labels:
[1] = tested on: recombinant genotype 1b HCV NS5B enzyme variants; assay: NS5B polymerase biochemical assay, several enzymes taken together; parameters: species or system Hepatitis C virus genotype 1b
Method: (§1) All NS5B enzymes were expressed and purified according to the protocol for NS5B-BB7dCT21-His as described (Howe et al. (2004) Antimicrobial Agents Chem. 48:4813-21). Briefly, expression plasmids were transformed into E. coli cells and NS5B expression was initiated by the addition of isopropyl-beta-D-thiogalactopyranoside (IPTG). After 4 to 6 hours of incubation the cells were harvested and lysed. NS5B enzymes were purified by chromatography using a nickel affinity column (Talon, B D Biosciences, Clontech Laboratories, Inc., Mountain View, Calif.)) followed by a cation exchange column (Poros H S, Applied Biosystems, Foster City, Calif.).

[2] = target: T1, HCV NS5B enzyme BB7 (C316) (Hepatitis C virus genotype 1b, UniProt Q9WMX2); assay: biochemical
T1 construct: according to the protocol for NS5B-BB7dCT21-His as described; His (C); made in house; host or cells: E. coli
Method: as §1

[3] = tested on: Clone A cells (genotype 1b HCV replicon); assay: Multiple treatments of Clone A cells, HCV RNA level; type: cell-based, Hepatitis C virus
Source text: The amounts of HCV RNA and rRNA in cell aliquots were estimated using a quantitative duplex TAQMAN® RT-PCR. The Y-axis represents HCV copies per μg of total cellular RNA (using rRNA as a marker for quantification). Each data point represents an average value from three replicates.
As a control, Clone A cells were passaged in parallel in the same medium containing 0.5% DMSO without compound. […] An aliquot of the cells from each passage was collected to monitor the HCV RNA levels.

physchem = conditions: plasma or biological fluid
[4] = tested on: Clone A cells (HCV genotype 1b replicon in Huh-7); assay: HCV replicon 3-day assay, HCV RNA by TaqMan RT-PCR; type: cell-based, Hepatitis C virus; conditions: for EC50: Hepatitis C virus, Huh-7
Method: The level of HCV RNA from cultures was expressed as % HCV RNA relative to control. Each point represents an average of four replicates. The effective concentration that inhibits 50% of HCV RNA levels (EC50) in the replicon-containing cells is indicated.
The levels of HCV RNA were determined using a quantitative TAQMAN® RT-PCR (PE Applied Biosystems, Foster City, Calif.).
Drug susceptibility of the replicon-containing cells to various compounds was evaluated as described previously (Howe et al. (2004) Antimicrobial Agents Chem. 48:4813-21). Briefly, cells were treated with increasing concentrations of compounds in medium containing 2% FCS and no G418 for three days at 37° C. and 5% CO2. After incubation, total RNA from the replicon-containing cells was isolated. The levels of HCV, glyceraldehyde 3-phosphate dehydrogenase (GAPDH) and ribosomal (rRNA) RNAs were quantified using TAQMAN® (PE Applied Biosystems, Foster City, Calif.) reverse transcriptase PCR reactions. The amounts of HCV, 18S ribosomal, and GAPDH RNAs in each sample were estimated by comparing the number of cycles during the exponential phase of the PCR amplification with those in the corresponding standard curves. HCV RNA standards used for the construction of the standard curve were prepared by extracting the total RNA from the Clone A cells. The RNA sample was sent to National Genetics Institute to quantify HCV RNA. Total RNA extracted from Clone A cells was quantified by O.D.260 measurement and used for construction of the standard curves of rRNA and GAPDH. The concentrations of the compounds that inhibit 50% of the HCV RNA level (EC50) were determined using the MDL® LIFE SCIENCE WORKBENCH® (LSW) Data Analysis software (MDL Information Systems, San Leandro, Calif.) in Microsoft EXCEL®. The amounts of HCV or GAPDH RNAs in the samples were expressed as HCV RNA (copies) or GAPDH (ng), respectively, per μg of total RNA using rRNA as a marker for total RNA measurement.

[5] = tested on: HCV NS5B enzyme BB7-C316F; assay: NS5B polymerase biochemical assay; parameters: species or system Hepatitis C virus genotype 1b; conditions: BB7-C316F vs BB7 (C316)
Method: as §1

[6] = target: T2, HCV NS5B enzyme BB7-M414I (Hepatitis C virus genotype 1b, UniProt Q9WMX2, M2833I); assay: NS5B polymerase biochemical assay
T2 construct: To prepare expression plasmid NS5B-BB7dCT21-His(M414I); His (C); made in house; host or cells: E. coli
Method: as §1

[7] = target: T3, HCV NS5B enzyme BB7-M414V (Hepatitis C virus genotype 1b, UniProt Q9WMX2, M2833V); assay: NS5B polymerase biochemical assay
T3 construct: NS5B-BB7dCT21-His(M414T/V/I); His (C); made in house; host or cells: E. coli
Method: as §1

1b, BB7-C316N replicon = assay: Replicon variant assay (separate laboratory); type: cell-based; conditions: Hepatitis C virus, read-out: HCV RNA EC50 (nM) ± SD
Method: pBB7-replicon variant DNAs were linearized with Sca I, and in vitro transcription was performed using Ambion's […]® T7 High Yield Transcription kit (Austin, Tex.). Purified RNA transcripts were electroporated into Huh-7 cells in quadruplicates using a Biorad GENE PULSER® Electroporation System (Setting: 270V, 950 μF) (Hercules, Calif.). Stably transfected replicon variant cell lines were initially selected with 0.25 mg/ml G418 and stepped up to 1 mg/ml before further testing. One cell plate was stained with Crystal Violet to visualize the number of colonies and determine the colony formation efficiency. […]
The contribution of individual amino acid changes on drug resistance was assessed in replicon variants containing single amino acid mutations in NS5B in the background of the genotype 1b, BB7 adaptive replicon (Blight et al. (2000) Science 290:1972-74).
Drug susceptibility of the replicon-containing cells to various compounds was evaluated as described previously (Howe et al. (2004) Antimicrobial Agents Chem. 48:4813-21). […] The levels of HCV, glyceraldehyde 3-phosphate dehydrogenase (GAPDH) and ribosomal (rRNA) RNAs were quantified using TAQMAN® (PE Applied Biosystems, Foster City, Calif.) reverse transcriptase PCR reactions. […] The RNA sample was sent to National Genetics Institute to quantify HCV RNA. […]

Structure (SMILES): CNC(=O)c1c(-c2ccc(F)cc2)oc2cc(N(CCO)S(C)(=O)=O)c(C3CC3)cc12 [HCV-796, 5-cyclopropyl-2-(4-fluorophenyl)-6-[(2-hydroxyethyl)(methylsulfonyl)amino]-N-methyl-1-benzofuran-3-carboxamide]
- difference in drug susceptibility (in words) ([1]; M414V/I and I363V enzyme variants vs wild type enzyme): no appreciable difference in drug susceptibility
- susceptibility of Asn316 enzymes compared with Cys316 enzymes (in words) ([1]; NS5B enzymes of genotype 1b isolates BK and J4, data not shown): less susceptible
- IC50 [2]: 40 nM
- decrease in the HCV RNA levels ([3]; 0.1 μM HCV-796, end of 16-day treatment): about 3.6 log10
- decrease in the HCV RNA levels ([3]; 1 μM HCV-796, end of 16-day treatment): ~4.2 log10
- reduction of HCV RNA levels ([3]; hepatoma cells containing a subgenomic genotype 1b HCV replicon): 3-4 log10 HCV copies/μg total RNA
- solubility (physchem): 56 µM (≈ 25 µg/mL)
- Mean log10 Viral Reduction ([4]; CloneA cells, 0.7 μM compound, 3-day assay): 2.1 log10 and 2.1 ± 0.4 (0.7 μM) log10
- EC50 ([4]; CloneA cells, HCV RNA, 72 hours, read-out: EC50 (μM) ± SD): 0.013 ± 0.013 µM
- EC50 ([4]; hepatoma cells containing a subgenomic genotype 1b HCV replicon, read-out: EC50): 0.009 µM
- Susceptibility Relative to Wild type Enzyme [5]: 124-fold less
- IC50 [6]: 0.024 ± 0.006 µM
- IC50 [7]: 0.028 ± 0.002 µM
- EC50 (1b, BB7-C316N replicon): 220 ± 110 nM
